According to patent US20230181491A1, “COMPOSITIONS AND METHODS FOR THE TREATMENT AND MANAGEMENT OF INFLAMMATION USING HYDROXYNORKETAMINE” (SPIRIFY PHARMA INC., priority 2020, published 2023):
Counter-ions that a name gives are not always drawn. Like-named read-outs stand apart in the source and are kept apart here.

What was measured:
[1] = system: LPS-induced human primary monocytes; assay: Release of cytokines (IL-6, TNF-α, IL-8, IL-1β) and PGE2 from LPS-induced human primary monocytes (ELISA, normalized to LPS = 100%); format: cell-based; details: for effect on secretion of all proinflammatory cytokines tested (IL-6, IL-1β, TNF-α, IL-8): 0.1 μM-250 μM; for inhibition at 50 µM / inhibition at 250 µM: Homo sapiens, Monocyte
human primary monocytes = assay: Viability of human primary monocytes (Alamar Blue); details: 50 μM and 250 μM; for viability of human primary monocytes: then 24 h LPS
Protocol: Viability of human primary monocytes—viable human primary monocyte cells were counted using Alamar Blue. Treatment with toxic amounts of sodium fluoride (NaF at 250 μg/ml) was used as control.
To this end, human primary monocytes were incubated for 24 hours and 48 hours with (R,S)-ketamine, (2R,6R)-hydroxynorketamine, (R,S)-norketamine, and (R,S)-dehydronorketamine at concentrations of 50 μM and 250 μM. LPS alone and treatment with dexamethasone (1 μM) were used as controls. Monocyte cells' viability was measured using Alamar blue to evaluate toxicity of the agents.

rats = details: cited from earlier work
rodents = details: cited from earlier work
COVID-19 patients = details: cited from earlier work
[2] = system: radical prostatectomy patients; details: cited from earlier work
[3] = 50 μM and 250 μM, 24 h pre-treatment, then 24 h LPS
[4] = 50 μM and 250 μM, 48 h pre-treatment, then 24 h LPS
[5] = 30 min pre-treatment, then 24 h LPS
[6] = 50 μM, 48 h pre-treatment, then 24 h LPS
[7] = 250 μM, 30 min pre-treatment, then 24 h LPS, read-out: inhibition of LPS-induced IL-1β release
[8] = 250 μM, 30 min pre-treatment, then 24 h LPS, read-out: inhibition of LPS-induced IL-6 release
[9] = 250 μM, 30 min pre-treatment, then 24 h LPS, read-out: inhibition of LPS-induced IL-8 release
[10] = 250 μM, 30 min pre-treatment, then 24 h LPS, read-out: inhibition of LPS-induced TNF-α release
[11] = 250 μM, 24 h pre-treatment, then 24 h LPS, read-out: inhibition of LPS-induced IL-6 release
[12] = 250 μM, 24 h pre-treatment, then 24 h LPS, read-out: inhibition of LPS-induced TNF-α release
[13] = 250 μM, 48 h pre-treatment, then 24 h LPS, read-out: inhibition of LPS-induced TNF-α release
[14] = 250 μM, 30 min pre-treatment, then 24 h LPS
[15] = 250 μM, 24 h pre-treatment, then 24 h LPS

Molecule | effect on IL-6 secretion [1, 3] | effect on LPS-induced IL-8 release [1, 3] | effect on PGE2 secretion [1, 3] | effect on TNF-α secretion [1, 3] | effect on IL-6 secretion [1, 4] | effect on PGE2 secretion [1, 4] | effect on TNF-α secretion [1, 4] | effect on secretion of all proinflammatory cytokines tested (IL-6, IL-1β, TNF-α, IL-8) [1, 5] | anesthetic effects (rats) | also measured
NC1(c2ccccc2Cl)CCC=CC1=O (racemic) [(R,S)-dehydronorketamine] | dramatically reduced all cytokines release | dramatically reduced all cytokines release | dramatically reduced | dramatically reduced all cytokines release | dramatically reduced all cytokines release | dramatically reduced | dramatically reduced all cytokines release | – | – | effect on LPS-mediated IL-8 release [1, 4]: dramatically reduced all cytokines release; viability of human primary monocytes (human primary monocytes; 24 h pre-treatment): highly toxic to the cells; viability of human primary monocytes (human primary monocytes; 48 h pre-treatment): induced a massive cells' mortality
CNC1(c2ccccc2Cl)CCCCC1=O (racemic) [(R,S)-ketamine hydrochloride] | inhibition in the secretion | without affecting IL-8 | inhibition in the secretion | inhibition in the secretion | inhibition of TNF-α, IL-6, and PGE2 secretion | inhibition of TNF-α, IL-6, and PGE2 secretion | inhibition of TNF-α, IL-6, and PGE2 secretion | potent inhibitory effect | produced anesthetic actions | inhibition at 50 µM [1, 6]: ~40%; inhibition at 250 µM [1, 7]: 30 to 60%; inhibition at 250 µM [1, 8]: 30 to 60%; inhibition at 250 µM [1, 9]: 30 to 60%; inhibition at 250 µM [1, 10]: 30 to 60%; inhibition at 250 µM [1, 11]: ~30%; inhibition at 250 µM [1, 12]: ~70%; inhibition at 250 µM [1, 13]: ~75%
NC1(c2ccccc2Cl)CCCCC1=O (racemic) [(R,S)-norketamine] | remained without any significant change | remained without any significant change | promoted the secretion of PGE2 | inhibited the secretion of TNF-α only at the higher dose tested | inhibited the secretion of TNF-α and IL-6 | promoted the secretion of the proinflammatory agent PGE2 at 250 μM | inhibited the secretion of TNF-α and IL-6 | – | produced anesthetic actions | –
N[C@@]1(c2ccccc2Cl)CCC[C@@H](O)C1=O [(2R,6R)-2-amino-2-(2-chlorophenyl)-6-hydroxycyclohexanone] | inhibition in the secretion | not affected | inhibition in the secretion | inhibition in the secretion | inhibition of TNF-α, IL-6, and PGE2 secretion | inhibition of TNF-α, IL-6, and PGE2 secretion | inhibition of TNF-α, IL-6, and PGE2 secretion | cytokines release decrease in a dose dependent manner | – | antidepressant-relevant behavioral responses (rodents): exert antidepressant-relevant behavioral responses; inhibition at 50 µM [1, 6]: ~20%; inhibition at 250 µM [1, 7]: ~20%; inhibition at 250 µM [1, 8]: ~20%; inhibition at 250 µM [1, 9]: ~20%; inhibition at 250 µM [1, 10]: ~30%; inhibition at 250 µM [1, 11]: ~35%; inhibition at 250 µM [1, 12]: ~40%; inhibition at 250 µM [1, 13]: ~55%; safety to monocytes (viability), overall conclusion (human primary monocytes; 24 h and 48 h pre-treatment): monocytes safety
N[C@]1(c2ccccc2Cl)CCC[C@H](O)C1=O [(2S,6S)-hydroxynorketamine hydrochloride, (2S,65)-2-amino-2-(2-chlorophenyl)-6-hydroxycyclohexanone] | – | not affected | – | – | – | – | – | cytokines release decrease in a dose dependent manner | – | antidepressant-relevant behavioral responses (rodents): exert antidepressant-relevant behavioral responses; inhibition of LPS-induced TNF-α release [1, 6]: approx. 30%; inhibition of LPS-induced IL-1β release [1, 14]: ~20%; inhibition of LPS-induced IL-6 release [1, 14]: ~20%; inhibition of LPS-induced IL-8 release [1, 14]: ~20%; inhibition of LPS-induced TNF-α release [1, 14]: approx. 30%; inhibition of LPS-induced IL-6 release [1, 15]: about 10%; inhibition of LPS-induced TNF-α release [1, 15]: approx. 30%; inhibition of LPS-induced TNF-α release ([1]; 250 μM, 48 h pre-treatment, then 24 h LPS): approx. 40%
Cc1ccc(-c2cc(C(F)(F)F)nn2-c2ccc(S(N)(=O)=O)cc2)cc1 [Celebrex] | – | – | – | – | – | – | – | – | – | PGE2 levels (COVID-19 patients): significantly reduced
C[C@@H]1C[C@H]2[C@@H]3CCC4=CC(=O)C=C[C@]4(C)[C@@]3(F)[C@@H](O)C[C@]2(C)[C@@]1(O)C(=O)CO [Dexamethasone, dexamethasone] | – | – | – | – | – | – | – | – | – | reduction of cytokines release ([1]; 10 μM, control, 30 min pre-treatment study (not shown)): about 60%
CN[C@]1(c2ccccc2Cl)CCCCC1=O [S-ketamine, (S)-ketamine] | – | – | – | – | – | – | – | – | – | surgery-associated increase in IL-6 [2]: attenuates; surgery-associated increase in TNF [2]: attenuates
(2R,6R;2S,6S)-HNK | – | – | – | – | – | – | – | – | no anesthetic or hyperlocomotor effects | –
